In ChEMBL document CHEMBL1145498, “A systematic interaction map of validated kinase inhibitors with Ser/Thr kinases” (Proc Natl Acad Sci U S A, 2007):

Experiments:
[1] = biological target: Serine/threonine-protein kinase RIO2 (Homo sapiens) (UniProt Q9BVS4)
[2] = biological target: Glycogen synthase kinase-3 beta (Homo sapiens, UniProt P49841)
[3] = biological target: Serine/threonine-protein kinase PAK 6 (Homo sapiens) (UniProt Q9NQU5)
[4] = biological target: T1, Dual specificity mitogen-activated protein kinase kinase 6 (Homo sapiens) (UniProt P52564)
T1 sequence (whole entry): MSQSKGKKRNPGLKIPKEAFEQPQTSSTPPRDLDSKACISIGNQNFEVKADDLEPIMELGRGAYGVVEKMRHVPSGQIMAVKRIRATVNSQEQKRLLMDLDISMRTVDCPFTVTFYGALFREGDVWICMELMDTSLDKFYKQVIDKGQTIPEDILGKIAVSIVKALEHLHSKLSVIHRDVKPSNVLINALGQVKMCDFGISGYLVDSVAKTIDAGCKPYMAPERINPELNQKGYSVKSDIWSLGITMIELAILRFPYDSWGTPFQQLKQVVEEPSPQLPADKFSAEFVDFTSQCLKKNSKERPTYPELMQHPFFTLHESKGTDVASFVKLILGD

[5] = biological target: Serine/threonine-protein kinase OSR1 (Homo sapiens) (UniProt O95747)
[6] = biological target: Calcium/calmodulin-dependent protein kinase kinase 2 (Homo sapiens, UniProt Q96RR4)
[7] = biological target: Serine/threonine-protein kinase 26 (Homo sapiens) (UniProt Q9P289)
Serine/threonine-protein kinase 26 (Homo sapiens), sequence (Q9P289 2-416 limits assumed): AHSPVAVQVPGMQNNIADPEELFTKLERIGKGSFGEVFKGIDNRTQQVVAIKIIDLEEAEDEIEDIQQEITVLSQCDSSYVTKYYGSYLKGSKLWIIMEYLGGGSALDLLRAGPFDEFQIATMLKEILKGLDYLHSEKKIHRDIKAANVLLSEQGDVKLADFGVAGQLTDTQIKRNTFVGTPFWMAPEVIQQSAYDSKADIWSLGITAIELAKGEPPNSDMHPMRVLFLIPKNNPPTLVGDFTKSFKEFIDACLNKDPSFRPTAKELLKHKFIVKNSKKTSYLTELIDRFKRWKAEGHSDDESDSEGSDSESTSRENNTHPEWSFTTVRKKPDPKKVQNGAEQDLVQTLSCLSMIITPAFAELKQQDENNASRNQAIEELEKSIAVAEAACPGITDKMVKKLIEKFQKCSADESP

[8] = biological target: Calcium/calmodulin-dependent protein kinase type 1D (Homo sapiens) (UniProt Q8IU85)
[9] = biological target: T2, 3-phosphoinositide-dependent protein kinase 1 (Homo sapiens) (UniProt O15530)
T2 sequence (whole entry): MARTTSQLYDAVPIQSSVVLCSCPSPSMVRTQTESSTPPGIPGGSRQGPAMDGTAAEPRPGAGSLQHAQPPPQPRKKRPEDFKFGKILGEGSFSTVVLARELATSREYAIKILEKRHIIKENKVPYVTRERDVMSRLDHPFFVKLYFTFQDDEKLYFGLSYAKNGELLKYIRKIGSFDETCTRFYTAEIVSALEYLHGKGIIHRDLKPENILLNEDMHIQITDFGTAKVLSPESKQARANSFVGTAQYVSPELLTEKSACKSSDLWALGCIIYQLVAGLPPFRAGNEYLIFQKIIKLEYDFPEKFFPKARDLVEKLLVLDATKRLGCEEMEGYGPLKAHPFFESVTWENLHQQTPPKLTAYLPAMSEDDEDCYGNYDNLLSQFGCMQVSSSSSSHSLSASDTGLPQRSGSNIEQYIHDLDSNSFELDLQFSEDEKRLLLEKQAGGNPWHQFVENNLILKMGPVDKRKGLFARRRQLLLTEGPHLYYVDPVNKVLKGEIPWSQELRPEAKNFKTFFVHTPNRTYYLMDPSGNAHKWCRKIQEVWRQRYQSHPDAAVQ

[10] = biological target: Calcium/calmodulin-dependent protein kinase type II subunit delta (Homo sapiens) (UniProt Q13557)
Calcium/calmodulin-dependent protein kinase type II subunit delta (Homo sapiens), sequence (Q13557 whole entry): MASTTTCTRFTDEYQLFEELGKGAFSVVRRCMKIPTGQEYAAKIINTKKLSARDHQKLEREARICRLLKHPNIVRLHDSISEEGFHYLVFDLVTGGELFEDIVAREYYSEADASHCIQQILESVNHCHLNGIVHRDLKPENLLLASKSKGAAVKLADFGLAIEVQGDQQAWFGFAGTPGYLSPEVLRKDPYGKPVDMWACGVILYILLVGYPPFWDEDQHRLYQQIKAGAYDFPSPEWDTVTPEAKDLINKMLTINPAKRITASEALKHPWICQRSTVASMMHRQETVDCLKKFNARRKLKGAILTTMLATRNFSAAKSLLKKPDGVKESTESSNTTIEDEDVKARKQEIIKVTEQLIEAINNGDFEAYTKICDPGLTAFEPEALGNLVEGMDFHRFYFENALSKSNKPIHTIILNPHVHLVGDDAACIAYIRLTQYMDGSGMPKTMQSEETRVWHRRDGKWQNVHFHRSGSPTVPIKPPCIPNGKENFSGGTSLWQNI

[11] = biological target: Calcium/calmodulin-dependent protein kinase type 1G (Homo sapiens) (UniProt Q96NX5)
[12] = biological target: T3, Serine/threonine-protein kinase PLK4 (Homo sapiens) (UniProt O00444)
T3 sequence (whole entry): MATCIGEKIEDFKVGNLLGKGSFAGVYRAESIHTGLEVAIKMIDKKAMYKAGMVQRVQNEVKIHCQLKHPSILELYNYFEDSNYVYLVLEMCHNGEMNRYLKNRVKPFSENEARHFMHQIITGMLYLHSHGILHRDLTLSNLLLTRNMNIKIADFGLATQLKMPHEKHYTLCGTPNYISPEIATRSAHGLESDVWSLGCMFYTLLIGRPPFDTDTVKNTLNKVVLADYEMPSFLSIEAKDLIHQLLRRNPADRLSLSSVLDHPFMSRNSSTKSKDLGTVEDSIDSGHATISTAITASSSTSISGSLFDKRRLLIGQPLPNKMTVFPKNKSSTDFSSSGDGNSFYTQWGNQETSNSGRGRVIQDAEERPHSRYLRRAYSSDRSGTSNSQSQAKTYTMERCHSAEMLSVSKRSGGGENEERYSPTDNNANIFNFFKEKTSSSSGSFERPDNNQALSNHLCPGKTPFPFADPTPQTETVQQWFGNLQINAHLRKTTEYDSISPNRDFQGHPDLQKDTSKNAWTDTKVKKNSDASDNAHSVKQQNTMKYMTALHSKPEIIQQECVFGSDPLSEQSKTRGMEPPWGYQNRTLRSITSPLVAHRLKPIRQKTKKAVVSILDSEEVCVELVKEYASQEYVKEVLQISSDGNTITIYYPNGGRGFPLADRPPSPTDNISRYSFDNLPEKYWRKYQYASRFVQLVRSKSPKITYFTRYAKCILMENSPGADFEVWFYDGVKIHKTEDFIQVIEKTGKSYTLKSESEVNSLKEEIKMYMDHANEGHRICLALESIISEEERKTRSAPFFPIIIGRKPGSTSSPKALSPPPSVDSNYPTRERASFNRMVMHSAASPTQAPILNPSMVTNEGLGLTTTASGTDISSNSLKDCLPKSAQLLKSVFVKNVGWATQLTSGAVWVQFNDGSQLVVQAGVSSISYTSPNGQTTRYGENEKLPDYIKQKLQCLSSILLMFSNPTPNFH

[13] = biological target: TRAF2 and NCK-interacting protein kinase (Homo sapiens) (UniProt Q9UKE5)
TRAF2 and NCK-interacting protein kinase (Homo sapiens), sequence (Q9UKE5 whole entry, looked up): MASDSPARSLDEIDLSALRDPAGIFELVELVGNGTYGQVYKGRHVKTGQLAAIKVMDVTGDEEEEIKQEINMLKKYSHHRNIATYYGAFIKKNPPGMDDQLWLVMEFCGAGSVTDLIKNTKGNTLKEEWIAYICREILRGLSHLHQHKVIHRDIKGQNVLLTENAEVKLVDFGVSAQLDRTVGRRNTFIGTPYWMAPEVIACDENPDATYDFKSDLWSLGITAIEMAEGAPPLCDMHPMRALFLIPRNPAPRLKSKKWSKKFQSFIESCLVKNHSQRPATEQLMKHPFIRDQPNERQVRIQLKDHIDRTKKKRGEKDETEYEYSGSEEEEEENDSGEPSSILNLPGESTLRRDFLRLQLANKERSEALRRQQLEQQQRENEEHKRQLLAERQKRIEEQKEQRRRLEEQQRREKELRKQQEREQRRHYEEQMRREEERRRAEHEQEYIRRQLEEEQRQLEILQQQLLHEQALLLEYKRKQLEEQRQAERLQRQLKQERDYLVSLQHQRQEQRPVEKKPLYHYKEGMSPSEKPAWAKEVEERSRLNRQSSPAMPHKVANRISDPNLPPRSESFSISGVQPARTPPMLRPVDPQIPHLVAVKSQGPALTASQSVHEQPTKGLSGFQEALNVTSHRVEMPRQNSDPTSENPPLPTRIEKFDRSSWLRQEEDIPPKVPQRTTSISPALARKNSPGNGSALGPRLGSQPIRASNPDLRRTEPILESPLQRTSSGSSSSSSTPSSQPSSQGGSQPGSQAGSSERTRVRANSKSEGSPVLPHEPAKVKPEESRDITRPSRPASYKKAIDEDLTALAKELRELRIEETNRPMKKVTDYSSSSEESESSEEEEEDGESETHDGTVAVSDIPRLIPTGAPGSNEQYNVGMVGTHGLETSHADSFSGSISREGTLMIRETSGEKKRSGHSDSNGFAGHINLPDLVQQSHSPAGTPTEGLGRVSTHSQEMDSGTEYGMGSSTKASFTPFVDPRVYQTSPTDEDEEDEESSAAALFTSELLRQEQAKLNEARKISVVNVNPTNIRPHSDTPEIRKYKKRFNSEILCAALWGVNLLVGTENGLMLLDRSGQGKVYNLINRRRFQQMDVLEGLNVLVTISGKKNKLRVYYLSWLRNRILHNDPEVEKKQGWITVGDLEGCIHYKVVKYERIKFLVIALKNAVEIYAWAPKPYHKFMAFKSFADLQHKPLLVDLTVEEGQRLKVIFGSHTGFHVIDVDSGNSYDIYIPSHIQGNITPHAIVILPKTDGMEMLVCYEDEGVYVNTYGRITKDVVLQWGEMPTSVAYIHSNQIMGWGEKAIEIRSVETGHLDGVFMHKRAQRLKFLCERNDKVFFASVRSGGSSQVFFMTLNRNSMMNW

[14] = biological target: Serine/threonine-protein kinase 38 (Homo sapiens) (UniProt Q15208)
[15] = biological target: Calcium/calmodulin-dependent protein kinase type II subunit gamma (Homo sapiens) (UniProt Q13555)
Calcium/calmodulin-dependent protein kinase type II subunit gamma (Homo sapiens), sequence (Q13555 whole entry): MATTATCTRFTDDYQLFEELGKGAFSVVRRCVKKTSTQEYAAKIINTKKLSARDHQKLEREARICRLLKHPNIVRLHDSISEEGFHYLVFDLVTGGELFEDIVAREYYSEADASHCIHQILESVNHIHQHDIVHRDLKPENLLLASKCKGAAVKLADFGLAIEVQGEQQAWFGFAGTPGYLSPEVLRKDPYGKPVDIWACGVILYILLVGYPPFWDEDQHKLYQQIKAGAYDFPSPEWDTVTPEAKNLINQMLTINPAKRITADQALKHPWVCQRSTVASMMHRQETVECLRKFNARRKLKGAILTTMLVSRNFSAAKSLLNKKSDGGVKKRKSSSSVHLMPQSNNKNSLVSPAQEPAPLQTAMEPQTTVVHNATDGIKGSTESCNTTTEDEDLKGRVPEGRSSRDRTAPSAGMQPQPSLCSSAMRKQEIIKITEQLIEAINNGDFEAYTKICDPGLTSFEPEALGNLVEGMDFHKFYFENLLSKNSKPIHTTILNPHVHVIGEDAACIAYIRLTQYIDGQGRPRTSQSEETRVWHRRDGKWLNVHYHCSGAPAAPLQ

[16] = biological target: Mitogen-activated protein kinase 11 (Homo sapiens, UniProt Q15759)
Mitogen-activated protein kinase 11, sequence (Q15759 whole entry): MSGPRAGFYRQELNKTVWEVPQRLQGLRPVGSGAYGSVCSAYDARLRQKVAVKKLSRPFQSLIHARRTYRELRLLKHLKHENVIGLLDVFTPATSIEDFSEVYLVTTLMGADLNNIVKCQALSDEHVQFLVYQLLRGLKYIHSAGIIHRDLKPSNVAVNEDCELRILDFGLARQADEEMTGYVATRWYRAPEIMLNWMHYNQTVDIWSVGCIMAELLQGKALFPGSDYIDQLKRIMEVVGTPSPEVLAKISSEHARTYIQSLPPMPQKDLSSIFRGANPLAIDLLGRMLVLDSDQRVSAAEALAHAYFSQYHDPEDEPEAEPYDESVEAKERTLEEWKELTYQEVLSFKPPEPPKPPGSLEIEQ

[17] = biological target: Serine/threonine-protein kinase PAK 5 (Homo sapiens) (UniProt Q9P286)
Serine/threonine-protein kinase PAK 5 (Homo sapiens), sequence (Q9P286 whole entry, looked up): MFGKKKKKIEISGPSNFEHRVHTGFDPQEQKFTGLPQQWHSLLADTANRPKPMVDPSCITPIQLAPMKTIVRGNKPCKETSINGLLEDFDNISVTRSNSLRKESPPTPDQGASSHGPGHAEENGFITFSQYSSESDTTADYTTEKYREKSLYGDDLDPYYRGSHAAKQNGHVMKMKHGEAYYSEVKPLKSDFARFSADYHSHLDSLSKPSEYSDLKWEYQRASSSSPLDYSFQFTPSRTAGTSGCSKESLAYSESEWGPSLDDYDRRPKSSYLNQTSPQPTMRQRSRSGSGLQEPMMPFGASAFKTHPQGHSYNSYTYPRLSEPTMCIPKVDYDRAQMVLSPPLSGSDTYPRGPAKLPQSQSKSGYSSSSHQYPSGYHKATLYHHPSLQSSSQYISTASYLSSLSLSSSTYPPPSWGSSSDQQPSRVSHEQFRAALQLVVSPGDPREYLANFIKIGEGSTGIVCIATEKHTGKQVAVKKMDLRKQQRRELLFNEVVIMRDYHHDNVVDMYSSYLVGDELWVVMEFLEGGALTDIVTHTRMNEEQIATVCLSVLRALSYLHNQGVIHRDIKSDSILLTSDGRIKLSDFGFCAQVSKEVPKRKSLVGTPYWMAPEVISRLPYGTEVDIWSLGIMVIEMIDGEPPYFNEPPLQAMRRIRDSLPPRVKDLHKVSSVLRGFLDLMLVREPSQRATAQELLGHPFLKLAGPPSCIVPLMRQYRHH

Serine/threonine-protein kinase PAK 6 (Homo sapiens), sequence (Q9NQU5 whole entry, looked up): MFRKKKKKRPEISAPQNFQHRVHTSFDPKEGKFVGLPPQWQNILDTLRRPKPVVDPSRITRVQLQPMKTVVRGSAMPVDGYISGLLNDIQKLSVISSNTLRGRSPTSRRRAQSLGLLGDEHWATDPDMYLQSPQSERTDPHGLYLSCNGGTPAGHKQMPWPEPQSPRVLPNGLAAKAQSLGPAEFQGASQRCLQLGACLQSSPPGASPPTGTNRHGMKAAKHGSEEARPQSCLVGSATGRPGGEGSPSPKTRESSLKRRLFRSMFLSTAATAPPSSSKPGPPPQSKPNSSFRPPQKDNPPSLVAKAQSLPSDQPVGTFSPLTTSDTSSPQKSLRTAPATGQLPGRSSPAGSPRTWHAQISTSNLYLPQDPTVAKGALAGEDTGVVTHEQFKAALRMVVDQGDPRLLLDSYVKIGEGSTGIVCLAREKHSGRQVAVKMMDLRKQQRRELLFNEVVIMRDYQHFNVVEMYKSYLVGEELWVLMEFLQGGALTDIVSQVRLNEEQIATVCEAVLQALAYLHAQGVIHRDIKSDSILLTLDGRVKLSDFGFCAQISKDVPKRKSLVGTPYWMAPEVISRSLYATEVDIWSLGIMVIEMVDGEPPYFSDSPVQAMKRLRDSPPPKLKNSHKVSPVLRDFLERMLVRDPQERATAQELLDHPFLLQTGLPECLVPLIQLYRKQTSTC
Glycogen synthase kinase-3 beta, sequence (P49841 whole entry, looked up): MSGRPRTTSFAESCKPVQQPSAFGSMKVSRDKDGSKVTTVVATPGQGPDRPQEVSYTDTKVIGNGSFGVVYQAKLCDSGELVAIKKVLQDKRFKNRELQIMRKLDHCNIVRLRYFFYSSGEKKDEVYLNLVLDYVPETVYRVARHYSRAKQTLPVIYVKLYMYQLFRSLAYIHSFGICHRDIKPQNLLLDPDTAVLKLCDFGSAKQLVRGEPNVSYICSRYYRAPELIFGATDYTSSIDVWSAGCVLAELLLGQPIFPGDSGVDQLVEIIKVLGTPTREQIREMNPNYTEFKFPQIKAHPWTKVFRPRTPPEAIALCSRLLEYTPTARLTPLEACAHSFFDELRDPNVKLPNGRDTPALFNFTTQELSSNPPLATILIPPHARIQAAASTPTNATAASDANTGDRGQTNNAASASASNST

O=C1Nc2ccccc2/C1=C1/Nc2ccccc2/C1=N\O
ΔTm [1]: 5.7 °C
ΔTm [2]: 11 °C
ΔTm [3]: 2.9 °C
ΔTm [4]: 6.4 °C
ΔTm [5]: 3.1 °C
ΔTm [6]: 5.9 °C
ΔTm [7]: 4.4 °C
ΔTm [8]: 2.2 °C
ΔTm [9]: 0.8 °C
ΔTm [10]: 2.8 °C
ΔTm [11]: 3.1 °C
ΔTm [12]: 10.9 °C
ΔTm [13]: 5.9 °C
ΔTm [14]: 3.8 °C
ΔTm [15]: 5.3 °C
ΔTm [16]: 2.4 °C
ΔTm [17]: 3.3 °C

CC(C)n1cnc2c(NCc3ccccc3)nc(NCCCO)nc21
ΔTm [1]: 0.4 °C
ΔTm [2]: 0.5 °C
ΔTm [3]: 0.6 °C
ΔTm [4]: 0 °C
ΔTm [5]: 0.3 °C
ΔTm [6]: 2 °C
ΔTm [7]: -0.3 °C
ΔTm [8]: 0.1 °C
ΔTm [9]: 0.1 °C
ΔTm [10]: -0.1 °C
ΔTm [11]: 0.2 °C
ΔTm [12]: 0.3 °C
ΔTm [13]: 0.4 °C
ΔTm [14]: 0.3 °C
ΔTm [15]: 0.3 °C
ΔTm [16]: 0.1 °C
ΔTm [17]: 0.4 °C

COc1cc2ncnc(Nc3cccc(Br)c3)c2cc1OC
ΔTm [1]: 1.2 °C
ΔTm [2]: 1.5 °C
ΔTm [3]: 0.1 °C
ΔTm [4]: 0.4 °C
ΔTm [5]: 0.6 °C
ΔTm [6]: 1.4 °C
ΔTm [7]: 1.2 °C
ΔTm [8]: 0.3 °C
ΔTm [9]: 0 °C
ΔTm [10]: -0.5 °C
ΔTm [11]: 0 °C
ΔTm [12]: 3.4 °C
ΔTm [13]: 2 °C
ΔTm [14]: 0.4 °C
ΔTm [15]: 0.1 °C
ΔTm [16]: 1.8 °C
ΔTm [17]: 0.3 °C

Ic1cccc(CSc2nnc(-c3ccncc3)o2)c1
ΔTm [1]: 1.6 °C
ΔTm [2]: 7.1 °C
ΔTm [3]: 0.2 °C
ΔTm [4]: 0.3 °C
ΔTm [5]: -0.7 °C
ΔTm [6]: -0.6 °C
ΔTm [7]: -0.5 °C
ΔTm [8]: -0.3 °C
ΔTm [9]: -0.6 °C
ΔTm [10]: -0.2 °C
ΔTm [11]: -0.7 °C
ΔTm [12]: 0.1 °C
ΔTm [13]: -0.3 °C
ΔTm [14]: 0.8 °C
ΔTm [15]: -0.1 °C
ΔTm [16]: -0.4 °C
ΔTm [17]: -0.2 °C

CC(C)(C)c1nc2c3ccc(F)cc3c3c(=O)[nH]ccc3c2[nH]1
ΔTm [1]: 0.7 °C
ΔTm [2]: 3 °C
ΔTm [3]: 2.3 °C
ΔTm [4]: 6 °C
ΔTm [5]: 3 °C
ΔTm [6]: 1.3 °C
ΔTm [7]: 4.1 °C
ΔTm [8]: 3.6 °C
ΔTm [9]: -1.3 °C
ΔTm [10]: 1.2 °C
ΔTm [11]: 1.9 °C
ΔTm [12]: 11.8 °C
ΔTm [13]: 3 °C
ΔTm [14]: 3.7 °C
ΔTm [15]: 4.5 °C
ΔTm [16]: 3 °C
ΔTm [17]: 2.1 °C

CC(C)N(CCO)c1nc(Nc2cccc(Cl)c2)c2ncn(C(C)C)c2n1
ΔTm [1]: 0.1 °C
ΔTm [2]: 2.4 °C
ΔTm [3]: 5.3 °C
ΔTm [4]: 0.9 °C
ΔTm [5]: 1.3 °C
ΔTm [6]: 2.8 °C
ΔTm [7]: 2.8 °C
ΔTm [8]: 0.4 °C
ΔTm [9]: -0.8 °C
ΔTm [10]: 0.2 °C
ΔTm [11]: -0.1 °C
ΔTm [12]: 1.2 °C
ΔTm [13]: 3.6 °C
ΔTm [14]: 3.3 °C
ΔTm [15]: 0.6 °C
ΔTm [16]: -0.4 °C
ΔTm [17]: 3 °C

O=C1c2ccccc2-c2n[nH]c3cccc1c23
ΔTm [1]: 2.2 °C
ΔTm [2]: 1.6 °C
ΔTm [3]: 1.8 °C
ΔTm [4]: 4.7 °C
ΔTm [5]: 3.2 °C
ΔTm [6]: 2.4 °C
ΔTm [7]: 2.1 °C
ΔTm [8]: 2.1 °C
ΔTm [9]: -0.1 °C
ΔTm [10]: -0.5 °C
ΔTm [11]: 2 °C
ΔTm [12]: 6.3 °C
ΔTm [13]: 3 °C
ΔTm [14]: 1 °C
ΔTm [15]: 0.8 °C
ΔTm [16]: 0.8 °C
ΔTm [17]: 1.1 °C

O=C1NC(=O)C(c2c[nH]c3ccccc23)=C1c1c[nH]c2ccccc12
ΔTm [1]: 0 °C
ΔTm [2]: 7.8 °C
ΔTm [3]: 0.8 °C
ΔTm [4]: 1.1 °C
ΔTm [5]: 2 °C
ΔTm [6]: -0.4 °C
ΔTm [7]: 0.9 °C
ΔTm [8]: 0.6 °C
ΔTm [9]: 0 °C
ΔTm [10]: 1 °C
ΔTm [11]: 1 °C
ΔTm [12]: 4.2 °C
ΔTm [13]: 1.2 °C
ΔTm [14]: 0.5 °C
ΔTm [15]: 2.2 °C
ΔTm [16]: 0.5 °C
ΔTm [17]: 0.6 °C

NC(=O)c1ccc(-c2nc(-c3ccc4c(c3)OCCO4)c(-c3ccccn3)[nH]2)cc1
ΔTm [1]: 0.7 °C
ΔTm [2]: 0.6 °C
ΔTm [3]: 0 °C
ΔTm [4]: 0.3 °C
ΔTm [5]: -0.1 °C
ΔTm [6]: -1.1 °C
ΔTm [7]: -1.1 °C
ΔTm [8]: 0 °C
ΔTm [9]: -0.1 °C
ΔTm [10]: 0.3 °C
ΔTm [11]: 1 °C
ΔTm [12]: 0.1 °C
ΔTm [13]: -0.6 °C
ΔTm [14]: 0.5 °C
ΔTm [15]: 0.3 °C
ΔTm [16]: -0.1 °C
ΔTm [17]: 0.4 °C

CC(C)n1cnc2c(NCc3ccccc3O)nc(NCCCO)nc21
ΔTm [1]: -0.1 °C
ΔTm [2]: 0.3 °C
ΔTm [3]: 0.3 °C
ΔTm [4]: 0.1 °C
ΔTm [5]: 0.3 °C
ΔTm [6]: 0.2 °C
ΔTm [7]: 0.4 °C
ΔTm [8]: 0 °C
ΔTm [9]: 0.1 °C
ΔTm [10]: -0.1 °C
ΔTm [11]: 0.1 °C
ΔTm [12]: 0.1 °C
ΔTm [13]: 0 °C
ΔTm [14]: 0.3 °C
ΔTm [15]: 0.1 °C
ΔTm [16]: 0.1 °C
ΔTm [17]: 0.2 °C

O=c1c(-c2ccc(F)cc2)c(-c2ccncc2)[nH]n1-c1ccc(Cl)cc1
ΔTm [1]: -0.2 °C
ΔTm [2]: 1.9 °C
ΔTm [3]: -0.4 °C
ΔTm [4]: 0.3 °C
ΔTm [5]: 0.2 °C
ΔTm [6]: 0.2 °C
ΔTm [7]: -0.5 °C
ΔTm [8]: 0.1 °C
ΔTm [9]: -1.2 °C
ΔTm [10]: 0.1 °C
ΔTm [11]: 1.3 °C
ΔTm [12]: 1 °C
ΔTm [13]: -0.2 °C
ΔTm [14]: 0.5 °C
ΔTm [15]: 0 °C
ΔTm [16]: 7.1 °C
ΔTm [17]: -0.1 °C

CN(C)c1ccc(CC2C(=O)Nc3ccccc32)cc1 (centres undefined)
ΔTm [1]: 0.9 °C
ΔTm [2]: 1.2 °C
ΔTm [3]: 0.1 °C
ΔTm [4]: 0.5 °C
ΔTm [5]: -0.6 °C
ΔTm [6]: 2 °C
ΔTm [7]: 0.7 °C
ΔTm [8]: 0 °C
ΔTm [9]: 0.3 °C
ΔTm [10]: 0.5 °C
ΔTm [11]: -0.2 °C
ΔTm [12]: 2.8 °C
ΔTm [13]: 4.1 °C
ΔTm [14]: 1.5 °C
ΔTm [15]: 0.2 °C
ΔTm [16]: 0.3 °C
ΔTm [17]: 0.3 °C
